According to ChEMBL document CHEMBL1926590, “Discovery of a novel class of non-ATP site DFG-out state p38 inhibitors utilizing computationally assisted virtual fragment-based drug design (vFBDD)” (Bioorg Med Chem Lett, 2011):

Assays:
[1] = Apparent permeability across apical to basolateral side in human Caco2 cells by UPLC analysis; assay type: ADME, cell-based; details: Caco-2
[2] = Half life in human hepatocytes; assay type: ADME, cell-based, Liver, Hepatocyte
[3] = Apparent permeability across basolateral to apical side in human Caco2 cells by UPLC analysis; assay type: ADME, cell-based; details: Caco-2
[4] = Oral bioavailability in Sprague-Dawley rat at 4 mg/kg; assay type: ADME, organism-based; details: in vivo

Papp A→B [1]: 0.39 ×10⁻⁶ cm/s
half-life [2]: 5.67 h
Papp B→A [3]: 5.3 ×10⁻⁶ cm/s
bioavailability [4]: 33%
SMILES: CN(C)CCN1CCN(C(=O)c2cc(C(C)(C)C)sc2NC(=O)Nc2cccc(Cl)c2Cl)CCC1=O
